From patent US20070149547A1, “Bipyridyl amides as modulators of metabotropic glutamate receptor-5” (priority 2004, published 2007)

Biological target: T1, hmGluR5a receptor (Homo sapiens, UniProt P41594)
T1 construct: expressed in transfected cells; host or cells: HEK293 cells (hm5a cell line)
Assay: Calcium flux assay (fura-2, glutamate-evoked [Ca2+]i)
Assay type: cell-based
Conditions: assay not given; follows the calcium flux / PI statement; read-out: IC50 (mGluR5 inhibitory activity)
Procedure: The compounds of this invention were tested against the hmGluR5a receptor stably expressed in mouse fibroblast Ltk^− cells (the hmGluR5a/L38-20 cell line) and activity was detected by changes in [Ca^++]i, measured using the fluorescent Ca^++-sensitive dye, fura-2. InsP assays were performed in mouse fibroblast Ltk^− cells (LM5a cell line) stably expressing hmGluR5a. The assays described in International Patent Publication WO 0116121 can be used.
The activity of compounds was examined against the hmGluR5a receptor stably expressed in human embryonic kidney HEK293 cells (the hmGluR5a cell line designated hm5a). See generally Daggett et al., Neuropharmacology 34:871-886 (1995). Receptor activity was detected by changes in intracellular calcium ([Ca^2+]i) measured using the fluorescent calcium-sensitive dye, fura-2. The hm5a cells were plated onto 96-well plates, and loaded with 3 µM fura-2 for 1 h. Unincorporated dye was washed from the cells, and the cell plate was transferred to a 96-channel fluorimeter (SIBIA-SAIC, La Jolla, Calif.) which is integrated into a fully automated plate handling and liquid delivery system. Cells were excited at 350 and 385 nm with a xenon source combined with optical filters. Emitted light was collected from the sample through a dichroic mirror and a 510 nm interference filter and directed into a cooled CCD camera (Princeton Instruments). Image pairs were captured approximately every 1 s, and ratio images were generated after background subtraction. After a basal reading of 20 s, an EC80 concentration of glutamate (10 µM) was added to the well, and the response evaluated for another 60 s. The glutamate-evoked increase in [Ca′]i in the presence of the screening compound was compared to the response of glutamate alone (the positive control).

T1 sequence (P41594 21-1180 isoform P41594-2 limits assumed): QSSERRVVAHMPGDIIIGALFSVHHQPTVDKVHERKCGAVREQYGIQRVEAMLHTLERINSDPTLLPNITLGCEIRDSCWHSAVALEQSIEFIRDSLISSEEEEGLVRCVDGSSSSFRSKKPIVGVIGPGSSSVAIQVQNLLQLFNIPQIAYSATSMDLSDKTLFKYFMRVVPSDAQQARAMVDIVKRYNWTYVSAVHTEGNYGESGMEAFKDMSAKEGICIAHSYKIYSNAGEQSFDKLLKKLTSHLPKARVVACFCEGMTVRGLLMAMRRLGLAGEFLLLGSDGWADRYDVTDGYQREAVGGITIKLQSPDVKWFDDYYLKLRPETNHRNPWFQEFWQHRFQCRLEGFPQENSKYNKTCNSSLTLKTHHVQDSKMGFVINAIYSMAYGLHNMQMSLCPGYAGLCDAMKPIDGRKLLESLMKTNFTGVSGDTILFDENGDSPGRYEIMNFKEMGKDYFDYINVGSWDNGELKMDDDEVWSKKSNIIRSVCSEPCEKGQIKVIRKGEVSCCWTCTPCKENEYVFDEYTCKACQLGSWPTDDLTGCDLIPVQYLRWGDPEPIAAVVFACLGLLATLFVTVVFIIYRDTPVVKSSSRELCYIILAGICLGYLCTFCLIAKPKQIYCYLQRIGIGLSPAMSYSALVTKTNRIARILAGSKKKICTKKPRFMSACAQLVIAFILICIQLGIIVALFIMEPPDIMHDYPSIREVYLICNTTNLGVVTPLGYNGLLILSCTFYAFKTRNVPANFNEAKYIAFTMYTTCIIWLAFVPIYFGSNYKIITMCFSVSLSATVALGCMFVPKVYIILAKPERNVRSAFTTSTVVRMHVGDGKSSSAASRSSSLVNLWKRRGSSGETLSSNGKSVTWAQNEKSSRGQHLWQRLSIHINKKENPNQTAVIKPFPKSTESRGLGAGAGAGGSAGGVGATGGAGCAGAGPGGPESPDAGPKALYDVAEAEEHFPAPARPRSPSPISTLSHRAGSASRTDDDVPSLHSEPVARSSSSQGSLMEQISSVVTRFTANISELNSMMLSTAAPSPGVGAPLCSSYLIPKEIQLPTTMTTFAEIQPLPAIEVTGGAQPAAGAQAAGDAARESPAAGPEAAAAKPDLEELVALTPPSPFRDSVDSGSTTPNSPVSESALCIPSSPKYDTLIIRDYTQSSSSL

IC50 [nM]	SMILES
500	N#Cc1cccc(NC(=O)c2nc(Cl)cnc2N)n1 [Example 29, 3-Amino-6-chloro-N-(6-cyanopyridin-2-yl)pyrazine-2-carboxamide]
1300	Nc1nc(C(F)(F)F)cnc1C(=O)Nc1ccccn1 [Example 38, 3-Amino-N-pyridin-2-yl-5-(trifluoromethyl)pyrazine-2-carboxamide]
3000	Cc1cccc(C(=O)Nc2cccc(-c3ccccc3)n2)n1 [Example 58, 6-Methyl-N-(6-phenylpyridin-2-yl)pyridine-2-carboxamide]
